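Grown in 96-well plates, cells were treated for 48 hours with each compound at five concentrations. Insufficient inhibition: endpoint recorded as highest concentration tested. Here, GI50 denotes the concentration required for 50% inhibition of growth.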 Activity calls are given as the source filed them. No stated cut-off is given here; in the data, active = GI50 up to about 1.1 µM and inactive = higher.

This note sets out measurements from ChEMBL document CHEMBL1201862, “PubChem BioAssay data set” (2004).

Some test systems named below: BT-549; M19-MEL; XF498; HOP-18; DLD-1; DMS-273; DMS-114; RXF 631; SNB-78.
Test in all cases: NCI-60 cell line screen, 48 h

As to `c1ccc2sc(SCSc3nc4ccccc4s3)nc2c1`, in the assay with BT-549, the GI50 was > 100 µM (inactive).
`CCC1(CC)C(=O)NC(=S)N=C1N`: the GI50 with M19-MEL, with XF498, in the assay on HOP-18, with DLD-1, in the assay on DMS-273 and with DMS-114 was > 100 µM (inactive) in each case. Moreover, the GI50 in the assay with RXF 631 is > 100 µM (inactive).
`CCc1cccc(C)c1NC(=O)C1=C(C)NC(C)=C(C(=O)Nc2c(C)cccc2CC)C1c1ccc([N+](=O)[O-])cc1`: the GI50 in the assay on M19-MEL is 38.1 µM (inactive); with XF498, 19.4 µM (inactive); in the assay with SNB-78 it was 97.1 µM (inactive); in the assay with DLD-1 it was 29 µM (inactive); in the assay on DMS-273, 38.6 µM (inactive); in the assay on RXF 631 it was 29.1 µM (inactive).
As to `O=c1[nH]c(=O)n([C@@H]2C[C@H](CO)[C@H](O)C2)cc1/C=C/Br`, the GI50 with M19-MEL, in the assay on SNB-78, with HOP-18, in the assay with DLD-1, in the assay on DMS-273 and with DMS-114 was > 100 µM (inactive) in each case. For the same compound, the GI50 in the assay with RXF 631 is > 100 µM (inactive).
As to `Cc1ccc(NC(=O)CC/C(CC(=O)C(C)(C)C)=N\Nc2ccc([N+](=O)[O-])cc2[N+](=O)[O-])cc1C`, the GI50 was 47.5 µM (inactive) in the assay with M19-MEL; > 100 µM (inactive) with SNB-78; > 100 µM (inactive) in the assay with HOP-18; 47.6 µM (inactive) in the assay on DLD-1; 30 µM (inactive) with DMS-114; > 100 µM (inactive) with RXF 631.
For the compound `NC1=NN(c2ccccc2)C(=O)C1C(=O)CCC(=O)Nc1cccc(Cl)c1` (stereo not drawn), the GI50 in the assay with M19-MEL, with XF498, in the assay with SNB-78, in the assay with HOP-18, with DLD-1 and in the assay on DMS-273 was > 100 µM (inactive) in each case. For the same compound, in the assay with DMS-114, the GI50 was > 100 µM (inactive).
On to `COc1cc(C2C(Cl)C(=O)N2NC(=O)Cc2ccccc2)ccc1O` (stereo not drawn), for which the GI50 in the assay on M19-MEL was > 100 µM (inactive); in the assay with XF498 it was > 100 µM (inactive); in the assay with SNB-78, > 100 µM (inactive); with HOP-18 it was 40.3 µM (inactive); in the assay with DLD-1, > 100 µM (inactive); with DMS-273 it was > 100 µM (inactive). For the same compound, the GI50 in the assay with DMS-114 is 50.2 µM (inactive).
As to `N#CC(c1ccccn1)c1nc2ccccc2[nH]1` (stereo not drawn), the GI50 in the assay with M19-MEL is > 100 µM (inactive); in the assay with XF498, 64.4 µM (inactive); in the assay on SNB-78, > 100 µM (inactive); in the assay with DLD-1 it was 98.9 µM (inactive); in the assay on DMS-114, 51.5 µM (inactive).
On to `O=c1cc(-c2ccccc2)nc(/C=C(\O)c2ccncc2)n1-c1ccccc1`, for which the GI50 in the assay on M19-MEL, in the assay with SNB-78, with HOP-18, with DLD-1, with DMS-273 and with DMS-114 was > 100 µM (inactive) in each case.
For the compound `COc1ccc(C(C2=C(O)CC(C)OC2=O)C2=C(O)CC(C)OC2=O)cc1` (stereo not drawn), the GI50 with M19-MEL, with SNB-78, in the assay on DLD-1, with DMS-273, with DMS-114 and in the assay with RXF 631 was > 100 µM (inactive) each time.
In the case of `COc1ccc2[nH]c3c4c(c5cc(C(C)(C)C)ccc5c3c2c1)C(=O)N(c1ccccc1)C4=O`, the GI50 with M19-MEL was > 100 µM (inactive); in the assay on SNB-78 it was > 100 µM (inactive); in the assay on HOP-18, 34.8 µM (inactive); in the assay with DLD-1, 13.4 µM (inactive); in the assay with DMS-114 it was > 100 µM (inactive).
Take `CC(C)[C@H](COC(C)(C)C)/N=C/N1CSc2ccccc21`: the GI50 in the assay on M19-MEL was 36.6 µM (inactive); in the assay on XF498, 16.9 µM (inactive); in the assay on SNB-78, 30 µM (inactive); in the assay with DLD-1, 48.4 µM (inactive); in the assay with DMS-273, 16.8 µM (inactive); in the assay with DMS-114 it was 21.8 µM (inactive). The GI50 in the assay with RXF 631 is 27.4 µM (inactive).
As to `O=C(/N=C(\Nc1ccccc1)SCCS/C(=N/C(=O)c1cccs1)Nc1ccccc1)c1cccs1`, the GI50 in the assay with M19-MEL is 53.8 µM (inactive); in the assay with XF498, 34.4 µM (inactive); in the assay with DLD-1, 40 µM (inactive); in the assay on DMS-273, 58.7 µM (inactive); in the assay with DMS-114, 30.2 µM (inactive).
On to `CN(C)CCCCCNc1c2ccccc2nc2cccc([N+](=O)[O-])c12`, for which the GI50 in the assay on M19-MEL is 0.00512 µM (active); in the assay on XF498 it was 0.00277 µM (active); in the assay on SNB-78, 0.00565 µM (active); in the assay on BT-549, 0.000946 µM (active); in the assay on HOP-18 it was 0.027 µM (active); with DLD-1 it was 0.00342 µM (active). Moreover, the GI50 in the assay on DMS-273 was 0.00197 µM (active); in the assay on DMS-114, 0.00242 µM (active).
In the case of `COc1ccc(/C=N/N=C(\N)NO)c(Cl)c1O`, the GI50 in the assay on M19-MEL is 1.48 µM (inactive); in the assay with SNB-78 it was 34.1 µM (inactive); with HOP-18 it was 2.22 µM (inactive); in the assay on DLD-1, 25.5 µM (inactive); in the assay on DMS-114, 5.9 µM (inactive).
Consider `Cc1ccccc1NC(=O)/C=N/O`, for which the GI50 in the assay with M19-MEL, in the assay on HOP-18, in the assay with DLD-1, in the assay with DMS-273 and in the assay with DMS-114 was > 100 µM (inactive) throughout.
For the compound `COc1ccc(/C(Cl)=C(\C=O)c2ccc(OC)c(OC)c2)cc1OC`, the GI50 is 99.3 µM (inactive) with M19-MEL; > 88.9 µM (inactive) in the assay on XF498; > 100 µM (inactive) with SNB-78; > 100 µM (inactive) with BT-549; > 98.2 µM (inactive) with HOP-18; > 92 µM (inactive) in the assay with DLD-1. Further, the results for the GI50 in the assay on DMS-273 and in the assay on DMS-114 were > 90.4 µM (inactive) and > 90.2 µM (inactive), respectively.
On to `COC(c1ccccc1)C(c1ccccc1)N1CCOCC1` (stereo not drawn), for which the GI50 is > 100 µM (inactive) in the assay on M19-MEL; 53 µM (inactive) in the assay on XF498; > 100 µM (inactive) in the assay on SNB-78; > 100 µM (inactive) in the assay on HOP-18; > 100 µM (inactive) with DLD-1; > 100 µM (inactive) with DMS-273. In addition, in the assay on DMS-114, the GI50 is > 100 µM (inactive).
Consider `O=C1C(Cl)C(c2ccccc2O)N1n1cnc2ccccc2c1=O` (stereo not drawn), for which the GI50 in the assay on M19-MEL was 97.3 µM (inactive); in the assay on XF498 it was 5.32 µM (inactive); with SNB-78, 26.2 µM (inactive); in the assay on HOP-18, 37 µM (inactive); in the assay with DLD-1 it was 67 µM (inactive); in the assay with DMS-273, 63.4 µM (inactive). For the same compound, in the assay with DMS-114, the GI50 is 20 µM (inactive).
As to `O=C1Nc2ccccc2N=CC1NC(=O)C(c1ccccc1)c1ccccc1` (stereo not drawn), the GI50 in the assay with M19-MEL was > 100 µM (inactive); in the assay with SNB-78 it was > 100 µM (inactive); with HOP-18, > 100 µM (inactive); in the assay with DLD-1 it was > 100 µM (inactive); in the assay with DMS-273, > 100 µM (inactive); in the assay on DMS-114 it was 86.5 µM (inactive). Besides, the GI50 in the assay with RXF 631 was > 100 µM (inactive).
For `O=[N+]([O-])C(=C(Sc1ccccc1)Sc1ccccc1)C(Cl)=C(Cl)Cl`, in the assay with BT-549, the GI50 was 1.18 µM (inactive).
Still for that read-out and setting: under `COc1cc2c3c(n(Cc4ccccc4)c(=O)c2cc1OC)-c1ccccc1C3=O` stands > 100 µM (inactive).
Consider `Cc1ccc(/C=C2\CNC/C(=C\c3ccc(C)cc3)C2=O)cc1`, for which the GI50 with M19-MEL was 1.57 µM (inactive); in the assay with XF498 it was 2.59 µM (inactive); with SNB-78, > 100 µM (inactive); in the assay with BT-549, 2.24 µM (inactive); in the assay with HOP-18 it was > 10 µM (inactive); with DLD-1, 0.34 µM (active). Besides, the values for the GI50 in the assay with DMS-273 and in the assay with DMS-114 were 1.24 µM (inactive) and 1.86 µM (inactive), respectively.
`COC1CCC(OS(C)(=O)=O)C(CO)O1` (stereo not drawn): the GI50 in the assay with M19-MEL, in the assay with XF498 and in the assay on DLD-1 was > 100 µM (inactive) each time.
With `O=C(N/C(=C\c1ccc([N+](=O)[O-])cc1)c1nc2cc(Cl)ccc2[nH]1)c1ccccc1`, the GI50 with M19-MEL was 31.6 µM (inactive); in the assay on XF498 it was 15.3 µM (inactive); with SNB-78 it was 23.8 µM (inactive); in the assay on DLD-1 it was 13.5 µM (inactive); in the assay with DMS-114, 16.3 µM (inactive).
For the compound `CCNC(=O)COc1ccc(Cl)cc1Cl`, the GI50 in the assay on M19-MEL, in the assay with SNB-78, in the assay with HOP-18, with DLD-1, with DMS-273 and in the assay on DMS-114 was > 100 µM (inactive) throughout. For the same compound, the GI50 with RXF 631 is > 100 µM (inactive).
As for `Cc1ccc(NC(=O)NC23CC4CC(CC(F)(C4)C2)C3)cc1`, the GI50 is > 100 µM (inactive) in the assay with M19-MEL; > 100 µM (inactive) in the assay on XF498; > 100 µM (inactive) with SNB-78; > 100 µM (inactive) in the assay with DLD-1; 86.3 µM (inactive) in the assay on DMS-273; 46.6 µM (inactive) with DMS-114.
For the compound `COc1ccc(C2CC(=O)CC(c3ccc(OC)cc3)C23C(=O)NC(=O)NC3=O)cc1` (stereo not drawn), the GI50 in the assay on BT-549 is 32.7 µM (inactive).
Regarding `CS/C(=N\c1ccccc1Cl)NC(=O)c1ccc(Br)cc1`, the GI50 is > 100 µM (inactive) in the assay with M19-MEL; 46.2 µM (inactive) in the assay with XF498; 19.1 µM (inactive) in the assay on SNB-78; 25.5 µM (inactive) with HOP-18; > 100 µM (inactive) in the assay on DLD-1; > 100 µM (inactive) with DMS-114.
Take `Cc1ccccc1NC(=O)/C(=N\NC(N)=S)C(C#N)c1ccccc1` (stereo not drawn): the GI50 in the assay on M19-MEL is > 100 µM (inactive); in the assay with SNB-78 it was > 100 µM (inactive); in the assay with HOP-18, > 100 µM (inactive); in the assay on DLD-1 it was > 100 µM (inactive); in the assay on DMS-273, > 100 µM (inactive); with DMS-114, 72.4 µM (inactive). In addition, the GI50 with RXF 631 is > 100 µM (inactive).
Consider `CC12CCC(=O)C[C@H]1CCC(OC=O)C2Br` (stereo partly drawn), for which the GI50 with M19-MEL, with XF498, in the assay with HOP-18, in the assay on DLD-1, in the assay on DMS-273 and with DMS-114 was > 100 µM (inactive) each time.
